Values belong to the compound of their own block, whether it stands above or below them.
Columns and labels:
KB cells [1] = experiment: colony-forming assay; type: cell-based, human; conditions: drug alone (0.1 mM HU or 0.3 μM Gem)
Method: Human oropharyngeal carcinoma KB cells (American Type Culture Collection) were cultured on plastic tissue culture plates in RPMI 1640 supplemented with 10% fetal bovine serum at 37° C. in a humidified atmosphere containing 5% carbon dioxide. […] In all studies, HU was included in the growth medium where indicated at a concentration of 0.1 mM while Gem was provided at a concentration of 0.3 μM.
The colony-forming ability of KB cells treated with HU and/or Gem at varying times was determined. Equal numbers of logarithmically growing cells were treated with HU and/or Gem at the times specified and then plated in 6-well tissue culture dishes as previously described (Zhou et al. (1998) Biochem Pharmaco 55, 1657–1665). The numbers of colonies, consisting of at least 50 cells, for each sample were counted after incubation at 37° C. for 8 generation times.
The colony-forming ability of KB cells treated with HU and/or Gem was assayed using the ID50 concentrations for KB cells. KB cells were exposed to 0.1 mM HU. 0.3 μM Gem was added after 2 to 24 hours of HU treatment, and then cells were assayed for their colony forming ability.

[2] = phase I trial: dose-limiting toxicities and MTD; type: in vivo, human; conditions: on days 2 and 9; HU 500 mg every 6 h x4 on days 1 and 8
Method: Pregnant female patients were excluded.
Patients received the chemotherapy as outpatients.
Hematologic dose-limiting toxicity (DLT) was defined as a platelet count <75,000/μl on day 8, or a platelet count <25,000/μl lasting seven or more days, an ANC <1,000/μl on day 8 or an ANC <500/μl lasting seven or more days. Hepatic DLT was defined as bilirubin 4.5–6.0 mg/dl or transaminase 8.0–20.0 times normal (grade 3), and bilirubin >6.0 mg/dl or transaminase more than 20.0 times normal (grade 4). Other toxicities were graded according to the NCl Common Toxicity Criteria Version 1.0. Dose escalations and determination of the maximum tolerated dose (MTD) were based on DLT occurring in the first cycle. MTD was defined as the highest dose tested at which none or only one patient experienced DLT when at least six patients were treated at that dose and were evaluable for toxicity. Patients received additional cycles of therapy until unacceptable toxicity required discontinuation of treatment, the patient requested discontinuation, or disease progression occurred.

clinical = experiment: clinical; design: species or system human; conditions: in vivo
Method: Blood sample were collected in heparinized tubes and kept on ice until plasma could be separated by centrifugation (within 30 min). Plasma was transferred to polypropylene tubes containing tetrahydrouridine to inhibit cytidine deaminase and stored at -70° C. until analysis. […] Detection was performed by UV absorbance at 275 nm. […] The inter- and intra-day coefficient of variation across the entire range of the standard curve were <10%, and the accuracies were ±7%. The lower limit of quantification of the assay was 5 ng/ml. […] Data were fitted to a two-compartment model with first-order elimination.

KBGem clone = conditions: cited from earlier work
hRRM2 mRNA in KB cells = experiment: Northern blot of hRRM2 mRNA after exposure to HU; type: cell-based, human; conditions: 0.1 mM HU
Method: RNA was electrophoresed in a formaldehyde-agarose gel and blotted onto Hybond-N membrane.
Northern blot analysis was used to measure the level of hRRM2 mRNA after exposure to HU at various time points. KB cells growing in logarithmic phase were exposed to 0.1 mM HU and harvested after 0, 2, 4, 8, 12 16 and 24 hours. Total cellular RNA was extracted and analyzed by Northern blot (20 μg per lane). PCR products, consisting of full-length hRRM2 subunit cDNA sequences, were used as probes. The amount of RNA detected was measured by phosphorimager and results were normalized to the amount of GAPDH mRNA detected on the same blot.

[3] = system: hRRM2 protein in KB cells; experiment: Western blot of hRRM2 protein after exposure to HU; type: cell-based, human; conditions: 0.1 mM HU, 4-hour point
RR activity in KB cells = target: T1, RR activity in KB cells (Homo sapiens, UniProt P31350); experiment: in vivo RR activity assay (permeabilized cells); type: cell-based; conditions: 0.1 mM HU
T1 construct: endogenous in cells; host or cells: KB cells (human oropharyngeal carcinoma), permeabilized with lysolecithin
T1 sequence (P31350 1-389): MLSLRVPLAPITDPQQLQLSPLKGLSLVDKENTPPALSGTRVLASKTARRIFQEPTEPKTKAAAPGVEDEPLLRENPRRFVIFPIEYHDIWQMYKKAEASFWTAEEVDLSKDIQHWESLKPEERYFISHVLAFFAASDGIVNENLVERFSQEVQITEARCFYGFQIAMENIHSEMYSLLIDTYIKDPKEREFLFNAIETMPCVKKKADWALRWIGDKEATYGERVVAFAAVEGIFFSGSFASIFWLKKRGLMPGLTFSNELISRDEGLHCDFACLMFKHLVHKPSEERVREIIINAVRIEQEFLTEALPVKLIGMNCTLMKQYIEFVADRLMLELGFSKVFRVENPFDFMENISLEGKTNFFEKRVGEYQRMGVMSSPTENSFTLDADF
Method: […] cells were plated in duplicate in 60-mm dishes. Cells were treated with 0.1 mM HU and harvested at the indicated time points. To permeabilize the cells, they were washed twice in Solution A (150 mM sucrose, 80 mM KCL, 35 mM HEPES, pH 7.4, 5 mM potassium phosphate, pH 7.4, 5 mM MgCl2, 0.5 mM CaCl2), resuspended in 500 μl of cold Solution A containing 0.25 mg/ml lysolecithin, and incubated for 1 minute at 4° C. To measure the activity of ribonucleoside diphosphate reduction and DNA synthesis, 1×10^6 permeabilized cells were incubated at 37° C. for 10 minutes in 300 μl of 50 mM HEPES, pH 7.4, 10 mM MgCl2, 8 mM dithiothreitol, 0.06 mM FeCl3, 7.5 mM potassium phosphate, pH 7.4, 0.75 mM CaCl2, 10 mM phosphoenolpyruvate, 0.2 mM ^3H-rCDP, 0.2 mM rGDP, 0.2 mM rADP, 0.2 mM dTDP. Following incubation, 150 μl of the suspension mixture was taken out, resulting in two samples, and mixed with 30 μl of 60% perchloric acid/0.1% sodium pyrophosphate. After a 15-minute incubation on ice, 1 ml ddH2O was added to dilute the mixture and then it was centrifuged to precipitate any acid-insoluble material. Pellets were extracted with 0.1 ml 0.2 N NaOH and incubated at 37° C. for 30 minutes.
An in vivo RR activity assay was performed at the same time points as above described. […] The results are consistent with the observed levels of hRRM2 mRNA and protein expression.

[4] = system: intracellular dNTP pools in KB cells; experiment: dNTP pool assay; type: cell-based, human
Method: After treatment at designated time points with HU and/or Gem, cells were trypsinized, washed with PBS and viable cells were counted by Trypan Blue dye exclusion. Cells were transferred to 1.5 ml Eppendorf tubes and pelleted by brief centrifugation. Cell pellets were mixed with 100 μl 15% trichloroacetic acid and kept on ice for 10 minutes. It was then centrifuged for 5 minutes and the supernatant collected. dNTPs were extracted with two 50 μl aliquots of freon/trioctylamine (55%:45%). After each centrifugation, the supernatant was saved. 5 μl aliquots of each sample were used to check dATP, dCTP, dGTP, and dTTP concentrations. Each measurement was performed in duplicate (Zhou et al. (1998) Biochem Pharmaco 55, 1657–1665).
The reaction mixture contained 50 mM Tris-HCl (pH 7.5), 10 mM MgCl2, 5 mM DTT, 0.25 μM template/primer, 1.25 μM ^3H-dATP (for dCTP, dGTP, and dTTP assays) or ^3H-dTTP (for dATP assay), and 0.2 units of Sequenase (2.0) in a total volume of 50 μl. DNA synthesis was allowed to proceed for twenty minutes at room temperature and then the reaction was stopped and 40 μl of the reaction mixture was spotted onto Whatman DE81 ion exchange paper (2.4 cm diameter). The paper was dried, washed with 5% Na2HPO4 (3×10 min.), and rinsed once with distilled water and once with 95% ethanol. Samples were counted in a liquid scintillation counter and compared to standard samples prepared in the presence of 0.25, 0.5, and 1.0 pmol/μl of each dNTP.
To evaluate the effect of HU on dNTP pools in KB cells, each dNTP pool was measured as described in the Materials and Methods. dATP and dCTP were the most susceptible of the four dNTP pools to inhibition by HU. A decrease in these intracellular pools commenced after 1 hour of exposure to HU. The decline continued, with the dCTP pool reaching a nadir of approximately 15% of the control at 4 hours. The dATP pool reached a nadir after 8 hours. In a second phase, between 8 and 24 hours after exposure to HU, the dATP and dCTP pools slowly recovered to about 80% of their starting level. […] The decline and recovery of the dCTP and dATP pools paralleled the results of the colony-forming study. The initial drop in hRRM2 mRNA and protein, observed after 2–4 hours of HU exposure, could contribute to the rapid decline in dCTP and dATP pools seen after 4 hrs, while the subsequent overexpression of hRRM2 mRNA and protein would provide the needed activity to allow gradual recovery of the levels of dCTP and dATP.

KB cells [5] = experiment: cell cycle analysis by flow cytometry; type: cell-based, human; conditions: 4 to 8 hours of exposure to HU
Method: The cell cycle analysis was performed at flowcytometry core facility of City of Hope National Medical Center. The percent of cells in each phase of the cell cycle was analyzed by ModFit software. The protocol was summarized as below. Cells were trypsinized, washed twice with PBS, and resuspended in 1 ml PBS. 7 ml 0.5 M citric acid buffer (pH 2.35) was added and samples were stored overnight at room temperature in the dark. On the second day, the cells were placed at 4° C. in a dark environment. On the third day, cells were spun down, resuspended in citric acid buffer (pH 4.5) and adjusted to a concentration of 1×10^6 cells/ml. On the following day, the cells were spun down and resuspended in 1 ml BSA-H (0.1% BSA in PBS buffer). 150 μg RNase A (DNase free) was added to the solution and cells were incubated at 37° C. for 30 minutes. The cells were washed once with BSA-H and the pellet was resuspended in 1 ml 100 μg/ml propidium iodine (PI) and stored overnight at room temperature in the dark. On the following day, cells were analyzed by flowcytometry (Gao et al. (1998) Biochem Pharmaco 56, 105–112).
To further examine the time- and sequence-dependent interaction between HU and Gem, the effect of HU on cell cycle was studied. […] As Gem function requires DNA synthesis, the increased percent of cells in S-phase after 4 to 8 hours after exposure to HU is likely to augment its function.

DNA of KB cells = conditions: any HU treatment schedule (control)
Method: 5×10^5 cells were seeded in 35-mm dishes and then treated with 0.1 mM HU. At the indicated time points, 7 μl of ^3H-2′-Deoxycytidine or 4 μl of ^3H-Gem was added and the plates were incubated for 30 minutes at 37° C. in a humidified atmosphere containing 5% carbon dioxide. The plates were then harvested, the DNA purified, its concentration measured, and 10 μg of DNA were suspended in 5 ml Ecoscint A and counted for radioactivity using a Beckman LS 5000 CE liquid scintillation counter.
The incorporation of ^3H-labeled Gem into DNA of KB cells treated with HU was measured.

KBHURs clone = conditions: cited from earlier work

Structure (SMILES): Nc1ccn([C@@H]2O[C@H](CO)[C@@H](O)C2(F)F)c(=O)n1 [Gemcitabine, gemcitabine]
colony formation, % of untreated controls (KB cells [1]): approximately 50%
MTD for gemcitabine in this combination of drugs [2]: 750 mg/m^2
t1/2 alpha (clinical; human): 2.4 ± 1.4 min
variation of CLsys within a single dose level (clinical; human): about 6 fold
half-life (clinical; human, t1/2 alpha): 2.6 ± 1.9 min
half-life (clinical; human, t 1/2 alpha, Mean): 2.7 min
half-life (clinical; human, t1/2 beta): 15.2 ± 5.3 min
differences in pharmacokinetic parameters between day 2 and day 9 (clinical): no significant differences
effect of administered dose on CLsys (clinical): no apparent effect
increase in resistance (to Gem) (KBGem clone): 10 fold

RR activity (RR activity in KB cells; 8-hour point): recovered to the level of the control
RR activity, % of the control (RR activity in KB cells; 4 hours): 60%
Structure (SMILES): NC(=O)NO [HU, hydroxyurea]
colony formation, % of untreated controls (KB cells [1]): approximately 50%
decrease of hRRM2 mRNA relative to untreated sample (hRRM2 mRNA in KB cells; 2 hours): 20%
hRRM2 mRNA, % of control levels (hRRM2 mRNA in KB cells; 4 hours): 60%
hRRM2 protein expression [3]: decrease
dTTP and dGTP pools over time ([4]; HU exposure): did not vary significantly
time at which dATP pool reached a nadir ([4]; HU exposure): 8 h
dCTP pool nadir, % of the control ([4]; HU, 4 hours): approximately 15%
dATP and dCTP pools, % of starting level after recovery ([4]; between 8 and 24 hours after exposure to HU): about 80%
percentage of cells in G1 (KB cells [5]): remained stable
percentage of cells in G2/M (KB cells [5]): declined
percentage of cells in S-phase (KB cells [5]): approximately doubled
incorporation of 3H-labeled CDP into DNA (DNA of KB cells): did not vary significantly
increase in resistance to HU over KBwt cells (KBHURs clone): 15 fold

— US7157570B2, “Human ribonucleotide reductase M2 subunit” (priority 2002, dated 2007)
